Test results taken from patent publication US5518737A, “Peroral drug delivery system” (priority 1991, dated 1996).
Structures can show the parent of a compound that is named as a salt. Where two headings read alike, the source gives them in different places.

How the values were obtained:
[1] = Dissolution rate of propranolol hydrochloride by rotating disc method; type: physicochemical; settings: 34° C., 550 mOsm, μ=0.3
Source text: Each experiment was repeated five times.

[2] = membranes incubated at pH 7.4 or pH 9.0 propranolol hydrochloride solutions prior to device preparation
Experimental: The thickness of the membranes was 150 μm. Solid propranolol hydrochloride (2 mg) was placed without or with pH-adjusting additives (sodium phosphate/disodium phosphate in different proportions, Tris buffer) (2 mg) on a cut piece of silicone membrane. Another silicone membrane was glued on the former so that the drug and, if present, adjuvant were encapsulated inside two membranes.
Propranolol release from the devices was studied in vitro at pH 7.4 in phosphate buffer from one side of the device in side-by-side diffusion cell. The exposed drug releasing surface was 0.7 cm^2. The released propranolol was analysed using reverse phase HPLC at 254 nm.

physchem = settings: buffer, pH 7.3, aqueous buffer
Experimental: Solubility of propranolol hydrochloride in buffer solutions at 34° C. was investigated by shaking propranolol hydrochloride suspension in the solvent. After equilibration, the saturated solutions were filtered and the concentration of propranolol in the filtrates was assayed by HPLC as described above. […] Each experiment was repeated five times.

[3] = Release of timolol from silicone microspheres (rotating bottle method); type: physicochemical; settings: for release of timolol from silicone microspheres after 1 hour: pH 7.4, 37° C., 100 mg microspheres
Experimental: In silicone microspheres, timolol maleate was used as a model drug and sodium phosphate and Tris buffer as release-controlling adjuvants. Spray-dried drug and adjuvants were either simply mixed as power mixtures or they were spray dried together. To prepare silicone microspheres, the drug (2-20 wt %) and, if present, pH-adjusting agent (0-10 wt %) were mixed with the silicone elastomer (an amine resistant Dow Corning X7-3012 elastomer), and the curing agent was added. One part of the curing agent is mixed in ten parts of the polymer. Vulcanization of the X7-3012 elastomers is based on a platinum catalyzed addition (hydrosilylation) reaction. Two grams of the drug-polymer mixture was dispersed in 35 grams of liquid paraffin using an overhead stirrer at 190 rpm and 22° C. The temperature was raised to 50° C. in 1 hour. After 3 hours, the heating was stopped, and the mixture gradually cooled back to 22° C. […] Microparticles were separated from paraffin by filtration, washed with n-hexane and dried at room temperature. The mean particle size of the microspheres was 150±50 μm (mean±SD) (FIG. 14) and the entrapment efficiency of timolol maleate was 60-75%. Release of timolol from the silicone microspheres was studied using the rotating bottle method (NF XIV) in pH 7.4 phosphate buffer at 37° C. The volume of dissolution medium was 3 ml and the amount of microspheres 100 mg. The release timolol was analysed using reverse phase HPLC at 294 nm.

Compound | dissolution rate, pH 7.3 versus pH 9.4 [1] | dissolution rate ([1]; pH of dissolution medium raised from 1.6 to 7.3) | initial lag time before steady drug release [2] | solubility (physchem) [mg/mL] | rates of propranolol release, effect of osmotic pressure (138 mOsm to 950 mOsm at pH 7.4) | rates of propranolol release, effect of osmotic pressure (295 mOsm to 960 mOsm at pH=4.6) | release profile and rate of propranolol release, effect of ionic strength (ionic strength 0.15 to 0.3) | drug release rate, effect of the surrounding pH (pH 1.6, 4.6, 7.3, 9.4) | release of timolol from silicone microspheres after 1 hour ([3]; 2 wt % drug loading) [µg] | release relative to absence of the pH-adjusting agent ([3]; 2 wt % timolol, 1 wt % Tris) | effect on release rate of adding disodium phosphate ([3]; 2 wt % timolol, 1 wt % disodium phosphate) | release of timolol from silicone microspheres after 1 hour ([3]; 20 wt % drug loading) [µg] | release relative to absence of the pH-adjusting agent ([3]; 20 wt % timolol, 10 wt % Tris) | relationship between the release of timolol and the square root of the time elapsed ([3]; pH 7.4 phosphate buffer, 37° C.) | release of timolol after 1 hour ([3]; timolol and disodium phosphate spray dried together) [µg]
CC(C)NCC(O)COc1cccc2ccccc12 (stereo not drawn) [propranolol, propranolol hydrochloride] | equal | increased | possible to avoid the initial lag time | 94 | remained essentially constant | remained essentially constant | independent of the ionic strength of the dissolution medium | practically unaffected by the surrounding pH | – | – | – | – | – | – | –
CC(C)(C)NC[C@H](O)COc1nsnc1N1CCOCC1 [timolol, timolol maleate] | – | – | – | – | – | – | – | – | 27 | two times faster | did not affect the release rate | 520 | two times faster | linear relationship | 187
